Assays:
[1] = tested on: purified DNA from salmon sperm; test: Treatment of purified DNA with allantoin; conditions: antibody-containing protein preparations, previous examples
Protocol: A 1 mg/mL preparation of purified DNA from salmon sperm was treated with 5% allantoin. More than 95% of the DNA remained soluble in the supernatant. This highlights the utility of separating virus or endotoxin contaminants from DNA preparations, such as plasmid preparations, which is otherwise extremely difficult because all three bind strongly to electropositive surfaces such as anion exchangers. […] The apparent discrepancy appears to be resolved by allantoin having little or no inherent affinity for DNA, but a very high affinity for DNA associated with other molecule, especially including DNA-compaction proteins or other compound associations of DNA with chromosomal substructures particularly including nucleosomes and their prokaryotic analogues. This further highlights the point that applications to purification of polynucleotides will likely benefit in particular from being conducted at high salt concentrations and/or the presence of organic modulators that discourage nonspecific formation of polynucleotide complexes with contaminants.

endotoxin [2] = test: Comparison of allantoin and uric acid for removal of endotoxin from human IgG solution; conditions: 1, 2 and 4% (w/v), 13,000 EU/ml, 6.7 mg/mL human IgG, 15 minutes
Protocol: Endotoxin was added to a 6.7 mg/mL solution of human IgG in 5 mM Hepes, 100 mM NaCl, pH 7.0 to a final concentration of 13,000 EU/ml. 1, 2 and 4% (w/v) of either allantoin or uric acid was added to aliquots of this mixture and allowed to mix for 15 minutes at room temperature. As a control, equal amounts of potato starch were added to a separate series. Finally, the reaction mixtures were clarified by centrifugation. Protein and endotoxin concentrations were measured to calculate antibody recovery and endotoxin removal. There was no reduction in endotoxin with the addition of starch. Uric acid produced a 4-fold reduction at all concentrations. Allantoin reduced endotoxin from 5-10-fold across the experiments (low to high). Antibody recovery was greater than 90% throughout. Besides the poorer performance of uric acid, the fact that results were unchanged as a function of the amount of uric acid are puzzling, and highlight allantoin as being a preferable ureide to begin with.

endotoxin [3] = test: Antibody recovery and endotoxin reduction from an IgG-endotoxin mixture
Protocol: Endotoxin was added to 1 mg/mL human IgG in 5 mM HEPES 100 mM NaCl pH 7.0 to 22,000 EU/ml. 2% (w/v) allantoin were added to aliquots of this mixture and allowed to mix for 15 minutes at room temperature. The suspension was clarified by centrifugation. Protein and endotoxin concentrations were measured to calculate antibody recovery and endotoxin removal. 2% (w/v) allantoin reduced endotoxin twofold. Antibody recovery was unaffected by the amount of allantoin. In a subsequent series of experiments, the amount of allantoin was increased in increments, up to 10%. Antibody recovery diminished gradually to about 93% at 10% allantoin, while endotoxin removal efficiency increased to about 99%. These experiments illustrate that the use of excessive amounts of allantoin can result in a loss of some proteins. In such cases, the person of skill in the art can make an informed decision as to the most productive balance of endotoxin removal versus protein recovery, and adjust the availability of the solid phase ureide accordingly. Additional experiments with proteins ranging in size from about 12 kDa to 1 MDa indicated a definite trend whereby the loss of protein increases with increasing protein size.

endotoxin [4] = test: Endotoxin reduction from an ovalbumin solution; conditions: start about 50 EU/mL
Protocol: A sample of ovalbumin in 50 mM phosphate, 100 mM NaCl, pH 7.2, contaminated with about 50 EU/mL of endotoxin, was saturated with 3% allantoin, incubated for 15 minutes, following which the precipitate was removed by membrane filtration. Endotoxin content of the supernatant was reduced by more than 95%, to less than 2 EU per mL. The experiment was repeated with 10% allantoin.

[5] = Cell culture harvest treated with allantoin and ethacridine, then iminodiacetic acid / TREN / butyl particle assembly; conditions: 1% allantoin, 0.025% ethacridine
Protocol: 1 L of cell culture harvest was treated by addition of 1% allantoin and 0.025% ethacridine and incubated stirring for 15 minutes, after which the cells and other particulates were removed by centrifugation. The supernatant was passed through an assembly containing equal proportions of styrene divinylbenzene particles substituted with iminodiacetic acid, agarose particles substituted with TREN, and acrylate particles substituted with butyl residues, with a combined volume of 50 mL, dimensions of 2.6×10 cm, and a flow rate of 25 mL/min. Initial aggregate content of greater than 12% was reduced to less than 0.1%. Excess ethacridine was removed. Host protein contamination was reduced 60%. DNA, as measured by qPCR was reduced by 6 logs. Antibody recovery was 99%.

murine leukemia virus [6] = test: Enhancement of virus inactivation at low pH, virus infectivity; conditions: pH 4 plus 10% allantoin
Protocol: A cell culture supernatant containing about 10^10 particles of murine leukemia virus per mL was split into 10 aliquots. Half of the aliquots were treated by reduction of pH to 4 for the purpose of inactivating the virus. The other half was treated by the same reduction or pH plus the addition of 10% allantoin. Aliquots representing treatment at 1, 5, 10, 15, and 60 minutes were evaluated for virus infectivity. At 1 minute, inactivation absent allantoin was 1.2 logs versus 2.4 logs with allantoin. At 5 minutes, inactivation absent allantoin was 3.2 logs versus 4.5 logs with allantoin. At 10 minutes, inactivation absent allantoin was 4.3 logs versus 5.4 logs with allantoin. At 15 minutes, inactivation absent allantoin was 5.1 logs versus 5.6 logs with allantoin. At 60 minutes, inactivation absent allantoin was 5.4 logs versus 5.6 logs with allantoin. Since the sensitivity of the infectivity assay is about 5.5 logs, it is likely that the allantoin inclusion increases the level of inactivation at all time points, in addition to accelerating inactivation. It will be apparent to the person of skill in the art that combination of allantoin with other virus inactivation methods will likely have a similar enhancing effect.

endotoxin [7] = test: Endotoxin removal during purification of a DNA plasmid from E. coli lysate; conditions: 10% allantoin, 15 minutes
Protocol: Powdered allantoin was added to a final concentration of 10% in a filtered E. coli lysate containing a DNA plasmid. The mixture was stirred for 15 minutes then the solid allantoin was removed by microfiltration. 96.7% of the endotoxin was removed with the allantoin. 80% of the DNA plasmid was recovered in the filtrate. […] From the results given in the previous Examples, it will be apparent to the person of ordinary skill, that in the case of plasmids produced in mammalian cells, allantoin treatment will offer the additional benefit of virus removal.

Attenuated Dengue virus = test: Co-precipitation of attenuated Dengue virus with allantoin; conditions: 7% allantoin, 600 mM NaCl, pH 6.0
Protocol: Attenuated Dengue virus was combined with 7% allantoin at 600 mM NaCl, pH 6.0. The supernatant was removed. The virus was recovered by dissolving the allantoin in 50 mM Hepes, pH 7.0. Recovery was estimated by immunoassay to be 70-80%.

[8] = Allantoin plus ethacridine treatment of IgG cell culture harvest, then TREN / T-butyl column; conditions: 1% allantoin with 0.01% ethacridine
Protocol: Cell-containing mammalian cell culture harvest containing a monoclonal IgG was treated by allantoin affinity with 1% allantoin in combination with 0.01% ethacridine. The sample, at a pH of about 7.2 and a conductivity of about 13.5 mS, these conditions corresponding with so-called physiological conditions, was passed over a column packed chromatography media including equal amounts of the metal affinity ligand TREN (BioWorks TREN hi-sub) and a hydrophobic ligands (Macroprep T-butyl). Antibody recovery following the previous steps was 99%. DNA was reduced by 3.5 logs, and virus was reduced by 4-5 logs. In addition, the treated sample was sparking clear, with a turbidity of about 2.0 NTU, indicating near-total removal of particulates.
The form or example 15 was followed except increasing the amount of allantoin over the course of a series of experiments, including 2%, 4%, and 8%. Antibody recovery decreased in a roughly linear fashion in inverse proportion to the amount of allantoin. Whereas recovery at 1% (example 15) was 99%, recovery at 8% was about 87%.
IgG processed as described in examples 15 and 16 was analyzed by size exclusion chromatography. […] Where aggregate content following example 15 was about 5%, it was reduced to about 1.3% at 8% allantoin. Aggregate content of membrane clarified cell harvest lacking allantoin was about 19%. […]

[9] = cited from earlier work
murine leukemia virus [10] = test: Co-precipitation of murine leukemia virus, infectivity testing of supernatant; conditions: 10% allantoin, physiological conditions, 10^10 particles per mL
Source text: A viral culture containing 10^10 particles per mL of murine leukemia virus was coprecipitated under physiological conditions by addition of allantoin in an amount of 10%. Infectivity testing of the supernatant documented removal of 99.9% of the virus.

minute virus of mice = test: Co-precipitation of minute virus of mice, infectivity testing of supernatant; conditions: 10% allantoin, physiological conditions, 10^10 particles per mL
Source text: A viral culture containing 10^10 particles per mL of minute virus of mice was coprecipitated under physiological conditions by addition of allantoin in an amount of 10%. Infectivity testing of the supernatant documented removal of 99.9% of the virus.

Bacteriophage M13 = test: Co-precipitation of bacteriophage M13 from phage cell culture supernatant with allantoin
Protocol: Phage cell culture supernatant was co-precipitated by addition of allantoin at a weight to volume ratio of 7%. pH was about 7.0. Conductivity was 20 mS. The virus was recovered by dissolving the allantoin in 50 mM Hepes, 150 mM NaCl, pH 7.0. Phage recovery was about 70%. Greater than 99% of proteins and small molecule contaminants were eliminated with the supernatant.
Example 1 was repeated at pH values of 5.0, 6.0, and 8.0% allantoin.
Example 1 was repeated at NaCl concentrations corresponding to conductivity values of 40, 60, 80, and 100 mS/cm. These salt concentrations correspond with about 400, 600, 800, and 1000 mM NaCl. […] Optimal co-precipitation occurred at 400 mM NaCl. This was interpreted to reflect suppression of mutual electrostatic repulsion among viral particles with the result of supporting higher packing density of the particles on the ureide surface.
Example 1 was repeated with 3%, 5%, and 10% allantoin. Co-precipitation efficiency, as judged by removal from supernatant, was directly correlated with allantoin concentration. Recovery increased from about 31% to 57% to 91% respectively.
Phage cell culture supernatant was precipitated with 7% allantoin at 400 mM NaCl, pH 6.0. The majority of proteins and small molecule contaminants were eliminated with the supernatant. Recovery was estimated to be in excess of 90%. […]

Compound: NC(=O)NC1NC(=O)NC1=O (stereo not drawn) [allantoin]
- DNA levels reduced by [1]: 98 to 99%
- reduction in endotoxin (endotoxin [2]): 5-10 fold
- endotoxin reduction (endotoxin [3]; 2% (w/v) allantoin, 22,000 EU/ml, 1 mg/mL human IgG, 15 minutes): twofold
- endotoxin removal efficiency (endotoxin [3]; 10% allantoin): about 99%
- Endotoxin content of the supernatant reduced by (endotoxin [4]; 3% allantoin, 15 minutes): more than 95%
- Endotoxin reduced by (endotoxin [4]; 10% allantoin): more than 99.5%
- DNA as measured by qPCR reduced by [5]: 6 logs
- Host protein contamination reduced [5]: 60%
- virus inactivation (murine leukemia virus [6]; 1 minute): 2.4 logs
- virus inactivation (murine leukemia virus [6]; 5 minutes): 4.5 logs
- virus inactivation (murine leukemia virus [6]; 10 minutes): 5.4 logs
- virus inactivation (murine leukemia virus [6]; 15 minutes): 5.6 logs
- virus inactivation (murine leukemia virus [6]; 60 minutes): 5.6 logs
- endotoxin removed with the allantoin (endotoxin [7]): 96.7%
- Host protein contamination reduced by (Attenuated Dengue virus): 99.3%
- DNA reduced by [8]: 3.5 logs
- virus reduced by [8]: 4-5 logs
- saturation concentration ([9]; aqueous solutions): about 36 mM
- removal of the virus (infectivity testing of supernatant) (murine leukemia virus [10]): 99.9%
- removal of the virus (infectivity testing of supernatant) (minute virus of mice): 99.9%
- virus eliminated in the precipitate (Bacteriophage M13; 5% allantoin, pH about 7.0, about 15 mS): About 60%
- proteins and small molecule contaminants eliminated with the supernatant (Bacteriophage M13; 7% allantoin, pH about 7.0, 20 mS): Greater than 99%

Compound: O=C1CNC(=O)N1 [hydantoin]
- solubility relative to allantoin ([9]; times more soluble than allantoin): roughly 10 times

Compound: O=c1[nH]c(=O)c2[nH]c(=O)[nH]c2[nH]1 [uric acid]
- reduction in endotoxin (endotoxin [2]): 4 fold

Source: US9637724B2, “Selective binding of biological targets to solid phase ureides” (AGENCY FOR SCIENCE, TECHNOLOGY AND RESEARCH, priority 2012, dated 2017)
